Source: US20240325399A1, “PHARMACEUTICAL COMPOSITION FOR PREVENTING OR TREATING CHOLANGITIS OR LIVER DISEASE CAUSED BY CHOLANGITIS COMPRISING ADENOSINE DERIVATIVE” (FUTURE MEDICINE CO., LTD., priority 2021, published 2024)

Tests used:
[1] = system: TPA-induced inflammation of the mouse ear; assay: Anti-inflammatory activity, TPA-induced inflammation of the mouse ear; format: in vivo, ICR mice; conditions: for Anti-inflammatory activity (TPA-induced mouse ear inflammation): 0.5% in acetone, 20 μl, topical to ear
Experimental: The adenosine derivatives of the present invention were examined for anti-inflammatory activity in the following animal test. Seven-week-old male ICR mice were treated with TPA (12-O-tetradecanoylphorbol-13-acetate, 20 l) in the right ear. […] Hydrocortisone was used at the same concentration as a control.
6 hrs after treatment with TPA, the mice were secondarily treated with the adenosine derivatives of the present invention. 24 hrs after TPA treatment, test animals were euthanized using a cervical dislocation method. Samples were obtained from the right ear using a 6 mm diameter punch. The activity was observed by measuring the ear sample using a microbalance. Percentages of inhibition were calculated using the following Equation 1. The compositions and amounts used in these experiments are summarized in Tables 14 to 17 and the anti-inflammatory activities thereof are shown in FIGS. 10 to 13.

Sprague Dawley rats = assay: Toxicity after intraperitoneal injection, 24 hrs observation, rats; format: in vivo; conditions: SD rats, intraperitoneal 20, 10 and 1 mg/kg
Experimental: (§1) The Adenosine Derivative of the present invention were assayed for cytotoxicity in animals.

ICR mice = assay: Toxicity after intraperitoneal injection, 24 hrs observation, mice; format: in vivo; conditions: intraperitoneal 20, 10 and 1 mg/kg
Experimental: as §1

[2] = biological target: T1, human A1 adenosine receptor (hA1) (Homo sapiens, UniProt P30542); assay: Binding affinity for A1 adenosine receptor ([3H]CCPA, CHO cells); conditions: percentage inhibition of specific binding in the presence of 10 μM of the unlabeled ligand NECA
T1 construct: expressed in transfected cells; host or cells: CHO cells (ATCC No. CCL-61)
T1 sequence (P30542 1-326): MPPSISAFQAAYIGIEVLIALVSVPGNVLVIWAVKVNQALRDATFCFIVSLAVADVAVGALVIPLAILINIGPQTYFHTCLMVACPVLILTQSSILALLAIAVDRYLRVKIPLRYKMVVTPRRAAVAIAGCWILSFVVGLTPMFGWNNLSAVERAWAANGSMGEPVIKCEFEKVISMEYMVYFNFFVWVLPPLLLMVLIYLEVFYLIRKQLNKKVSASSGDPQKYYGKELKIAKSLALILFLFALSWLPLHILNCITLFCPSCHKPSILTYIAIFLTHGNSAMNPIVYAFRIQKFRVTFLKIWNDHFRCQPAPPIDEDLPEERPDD
Experimental: CHO cells (ATCC No. CCL-61), in which A1 and A3 adenosine receptors were expressed, were cultured in F-12 media (Gibco, U.S.A.) supplemented with 10% fetal bovine serum (FBS) and penicillin/streptomycin (100 units/ml and 100 g/ml), at 37° C. in a 5% CO2 atmosphere. […] Incubation for 1 hr in a 37° C. incubator was followed by rapid filtration in a vacuum using a cell collector (TOMTEC, U.S.A.). Subsequently, the test tubes were washed three times with 3 ml of the buffer before radioactivity was measured using a γ-counter. […] Ki for binding affinity was determined by subtracting the non-specific binding value from the total binding value. On the basis of the specific binding values, the samples were analyzed for binding affinity to various adenosine receptors.

[3] = biological target: T2, human A2A adenosine receptor (hA2A) (Homo sapiens, UniProt P29274); assay: Binding affinity for A2A adenosine receptor ([3H]CGS-21680, HEK 293 cell); conditions: percentage inhibition of specific binding of 10 μM labeled ligand in the presence of 10 μM of the unlabeled ligand NECA
T2 construct: expressed in transfected cells; host or cells: HEK 293 cell
T2 sequence (P29274 whole entry): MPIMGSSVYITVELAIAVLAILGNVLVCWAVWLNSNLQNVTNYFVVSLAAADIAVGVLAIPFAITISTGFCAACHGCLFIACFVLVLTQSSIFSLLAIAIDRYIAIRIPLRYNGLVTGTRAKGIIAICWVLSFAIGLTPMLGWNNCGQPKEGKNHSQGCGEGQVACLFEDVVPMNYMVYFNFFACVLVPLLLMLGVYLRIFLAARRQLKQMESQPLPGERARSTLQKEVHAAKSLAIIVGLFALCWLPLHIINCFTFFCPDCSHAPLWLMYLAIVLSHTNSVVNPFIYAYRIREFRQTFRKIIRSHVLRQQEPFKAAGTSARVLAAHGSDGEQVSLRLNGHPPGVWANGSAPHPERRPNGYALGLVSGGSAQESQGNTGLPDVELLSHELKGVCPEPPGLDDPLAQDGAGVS
Experimental: Each of the compounds synthesized in the examples was measured for IC50 at least 6 different concentrations, and the measurements were analyzed using SigmaPlot software to determine Ki values.

[4] = patients with liver cirrhosis; cited from earlier work

## O[C@@H]1[C@H](O)CS[C@H]1n1cnc2c(NCc3cccc(F)c3)nc(Cl)nc21 [Example 1, (2R,3R,4S)-2-(2-chloro-6-(3-fluorobenzylamino)-9H-purin-9-yl)tetrahydrothiophen-3,4-diol]
[1]
  Anti-inflammatory activity (TPA-induced mouse ear inflammation): increased

## O[C@@H]1[C@H](O)CS[C@H]1n1cnc2c(NCc3cccc(Cl)c3)nc(Cl)nc21 [Example 2, (2R,3R,4S)-2-(2-chloro-6-(3-chlorobenzylamino)-9H-purin-9-yl)tetrahydrothiophen-3,4-diol]
Sprague Dawley rats
  Weight gain or feed intake versus control group: No difference in weight gain or feed intake
ICR mice
  Weight gain or feed intake versus control group: No difference in weight gain or feed intake
[2]
  % inhibition of specific binding, hA1: 37.9%
[3]
  % inhibition of specific binding, hA2A: 17.7%

## COc1ccc(Cl)cc1CNc1nc(Cl)nc2c1ncn2[C@@H]1SC[C@@H](O)[C@H]1O [Example 6, (2R,3R,4S)-2-(2-chloro-6-(5-chloro-2-methoxybenzylamino)-9H-purin-9-yl)tetrahydrothiophen-3,4-diol]
[1]; 0.5% in a mixture of distilled water and acetone (1:4)
  Percentage of inflammation inhibition: 34%
[1]
  Anti-inflammatory activity (TPA-induced mouse ear inflammation): increased

## O[C@@H]1[C@H](O)CO[C@H]1n1cnc2c(NCc3cccc(I)c3)nc(Cl)nc21 [Example 16, (2R,3R,4R)-2-(2-chloro-6-(3-iodobenzylamino)-9H-purin-9-yl)tetrahydrofuran-3,4-diol]
[1]; 0.5% in a mixture of DMSO and acetone (1:9)
  Percentage of inflammation inhibition: 79%

## CC[C@H]1[C@@H](O)[C@@H]2[C@H](CC[C@]3(C)[C@@H]([C@H](C)CCC(=O)O)CC[C@@H]23)[C@@]2(C)CC[C@@H](O)C[C@@H]12 [OCA, obeticholic acid]
[4]
  Liver safety in patients: may induce acute liver failure in patients with liver cirrhosis
